The target of assay [1] is T1, Tec kinase mediated tyrosine phosphorylation of STAP1 (Homo sapiens, UniProt P42680).
T1 construct: made in house; host or cells: Tec: SF9 insect cells (baculovirus); STAP1 purchased (Hölzel Diagnostika, Cat. # GWB-P0486E-100)
Briefly: In vitro Tec kinase mediated tyrosine phosphorylation of STAP1. In kind it is biochemical. The note with it: 50 μM compound; FIGS. 7C and F. On the procedure:
FGF2 and STAP1 tyrosine phosphorylation as well as Tec kinase auto-phosphorylation were analyzed as described in the legend to FIG. 6 and in Experimental Procedures. In vitro phosphorylation experiments were conducted in the absence (1% DMSO mock control) and presence of the small molecule inhibitors (#6, #14, #21; 50 μM in 1% DMSO) and control compounds (#18, #19; 50 μM in 1% DMSO) introduced in FIGS. 4 and 5. A Western analysis was conducted using anti-phosphotyrosine antibodies (anti-pY-FGF2 for FGF2 and Tec as well as anti-pY-4G10 for STAP1). M=PageRuler Prestained Protein Ladder: 140, 115, 80, 65, 50, 40, 30, 25, 15, 10 kDa. Fluorescent secondary antibodies were used to detect and quantify antigens using the LI-COR Odyssey imaging platform. In panels D, E and F, following normalization based upon background signals detected in the absence of Tec kinase or ATP, the average of the signals detected under mock conditions was defined as 100% activity. Standard deviations are shown. A one-tailed and unpaired T-test was conducted to assess statistical significance (* p<0.05, ** p<0.01, *** p<0.001, **** p<0.0001). “NS” indicates absence of significant differences.
A Tec kinase in vitro phosphorylation assay was established to test the inhibitory potential and selectivity of the small molecule inhibitors reported in this study (FIGS. 6 and 7). […] Phosphorylation levels of GST-NΔ173 Tec (auto-phosphorylation), FGF2 and STAP1 were quantified by a Western analysis using polyclonal anti-phosphotyrosine antibodies raised against a FGF2-derived synthetic peptide containing a phosphorylated tyrosine residue (ANRpYLAMKED; SEQ ID NO: 1). […] Phosphorylation levels of STAP1 were monitored using a monoclonal anti-phosphotyrosine antibody (clone 4G10®, #05-321, Merck Millipore). Appropriate fluorescent secondary antibodies (goat anti-rabbit IgG conjugated with Alexa Fluor® 680, # A-21076, Life Technologies; goat anti-mouse IgG conjugated with Alexa Fluor® 680, # A-21057, Life Technologies) were used to quantify all antigens employing the LI-COR Odyssey infrared imaging platform. […]

Assay [2] relates to CHO cells stably expressing FGF2-GFP. The assay can be described thus: FGF2-GFP secretion by cell surface biotinylation. In kind it is cell-based. The note with it: 10, 25 and 50 μM; mock 0.5% DMSO = 100%. The source says: A stable CHO cell line expressing an FGF2-GFP fusion protein in a doxycycline-dependent manner was used to quantify FGF2 transport to cell surfaces in the absence and presence of the small molecule inhibitors introduced in FIGS. 4, 5, 6 and 7. As detailed in Experimental Procedures, following cultivation of cells in the presence of compounds as indicated and induction of FGF2-GFP expression, proteins localized to the cell surface were biotinylated with a membrane-impermeable reagent. Following quenching of the biotinylation reagent, biotinylated proteins were purified using streptavidin beads. Following SDS-PAGE analyzing both the total lysate (input termed “cells”; 1.7%) and the biotinylated cell surface fraction (33%), a Western analysis was conducted to detect the secreted population of FGF2-GFP. Using appropriate fluorescent secondary antibodies, both FGF2-GFP and GAPDH (used as a control protein restricted to the intracellular space) were quantified using the LI-COR Odyssey imaging platform. FGF2-GFP secretion quantified under mock conditions (0.5% DMSO) was defined as 100% secretion efficiency. Standard deviations are shown from three independent experiments, each of which was conducted in two technical replicates. A two-tailed and unpaired T-test was conducted to assess statistical significance (* p<0.05, ** p<0.01, *** p<0.001, **** p<0.0001). “NS” indicates absence of significant differences.
Secreted FGF2 remains bound to heparan sulfates on cell surfaces without release into cell culture supernatants. This allows for biochemical detection of the secreted population based upon cell surface biotinylation experiments. CHO cells stably expressing FGF2-GFP in a doxycycline-dependent manner were cultivated in the presence of compounds #6, #14, #21, #18 and #19 (see FIGS. 4 and 5) at 10 μM, 25 μM and 50 μM in 0.5% DMSO (final concentration) as well as under mock conditions. […] Using appropriate fluorescent secondary antibodies, FGF2-GFP and GAPDH were quantified using the LI-COR Odyssey imaging platform. […]

“Also recorded” adds a separate entry of the source.

T1 sequence (P42680 174-631): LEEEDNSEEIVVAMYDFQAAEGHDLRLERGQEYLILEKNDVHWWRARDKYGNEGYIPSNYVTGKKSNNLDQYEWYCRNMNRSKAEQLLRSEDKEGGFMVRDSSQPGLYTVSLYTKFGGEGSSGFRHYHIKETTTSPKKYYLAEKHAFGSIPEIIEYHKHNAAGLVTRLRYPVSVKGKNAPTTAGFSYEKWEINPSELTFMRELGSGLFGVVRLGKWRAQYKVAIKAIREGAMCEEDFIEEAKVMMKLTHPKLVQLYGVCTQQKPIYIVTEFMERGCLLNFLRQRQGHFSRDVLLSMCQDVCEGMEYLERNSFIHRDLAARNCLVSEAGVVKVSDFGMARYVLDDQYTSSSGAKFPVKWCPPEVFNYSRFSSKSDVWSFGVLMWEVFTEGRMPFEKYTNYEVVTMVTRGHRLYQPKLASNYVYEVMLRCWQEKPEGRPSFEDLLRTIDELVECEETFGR

Regarding `COC(=O)c1c(C)[nH]c(C(=O)OCc2cc(=O)n3c(C)cccc3n2)c1C` [compound #6], in assay [1], the “effect on tyrosine phosphorylation of STAP1” value (shortened to “effect”) is recorded as “neither auto-phosphorylation of NΔ173 Tec nor tyrosine phosphorylation of STAP1 is affected”. Moreover, in assay [2], the “inhibition of FGF2 secretion from cells” value was “inhibition was observed in a dose-dependent manner”.

On to `CC(=O)c1c(C)[nH]c(C(=O)OCc2cc(=O)n3cc(Br)ccc3n2)c1C` [compound #14], for which, in assay [1], the “effect” value was “neither auto-phosphorylation of NΔ173 Tec nor tyrosine phosphorylation of STAP1 is affected”. For the same compound, the “inhibition of FGF2 secretion from cells” value in assay [2] is reported as “inhibition was observed in a dose-dependent manner”.

Consider `CC(=O)c1c(C)[nH]c(C(=O)CSc2nc3cc(Cl)cnc3[nH]2)c1C` [compound #21], for which the “effect” value in assay [1] was “neither auto-phosphorylation of NΔ173 Tec nor tyrosine phosphorylation of STAP1 is affected”. Besides, the “inhibition of FGF2 secretion from cells” value in assay [2] is “inhibition was stronger at 10 μM compared to higher concentrations; also recorded: robust inhibition at 10 μM and somewhat less efficient inhibition at 25 and 50 μM”.

These data come from US10842793B2, “Inhibitors of the unconventional secretion of fibroblast growth factor 2 (FGF2) by tumor cells and uses thereof” (Universität Heidelberg, priority 2016, dated 2020).
